In US10766884B2 (Pfizer Inc., priority 2018, dated 2020):

How the values were obtained:
CDK4 = CDK4 (Homo sapiens (Human), UniProt P11802); assay: Phospho-Serine 795 Rb ELISA assay in JEKO-1 cells; format: cell-based; conditions: overnight treatment, phospho-Rb S795, read-out: CDK4 pRB S795 ELISA JEKO-1 cells IC50
Procedure: (§1) JEKO-1 or MV4-11 cells were seeded at 15,000 or 20,000 cells per well, respectively, in 100 μL growth media and allowed to incubate at 37° C. with 5% CO2 overnight. The following day, compounds were serially diluted from a 10 mM top dose for an 11-point 3-fold dilution curve in DMSO. Compounds were intermediately diluted 1:200 into growth media prior to diluting 1:5 on cells for final concentration 10 μM to 0.1 nM in 0.1% DMSO on cells. JEKO-1 and MV4-11 cells were treated were treated overnight, at 37° C. with 5% CO2. Cells were lysed in 100 μL/well CST lysis buffer on ice and transferred to pre-coated and blocked anti-phospho-Ser795 Rb ELISA plates for overnight incubation at 4° C. Plates were washed to remove residual, unbound cellular proteins and total Rb detection antibody added for 90 minutes at 37° C. Following wash to remove unbound total Rb antibody, the HRP tagged antibody was allowed to bind for 30 minutes at 37° C. Following wash to remove unbound HRP antibody, Glo Substrate Reagent was added and incubated protected from light for 5 to 10 minutes. Plates were read in luminescence mode and IC50 values calculated.

CDK6 = CDK6 (Homo sapiens (Human), UniProt Q00534); assay: Phospho-Serine 795 Rb ELISA assay in MV4-11 cells; format: cell-based; conditions: overnight treatment, phospho-Rb S795, read-out: CDK6 pRB S795 ELISA MV4-11 cells IC50
Procedure: as §1

CDK4/Cyclin D1 = CDK4/Cyclin D1 (Homo sapiens (Human), UniProt P11802); assay: CDK4/Cyclin D1 mobility shift assay; format: biochemical; conditions: activated CDK4/Cyclin D1, 3.5 mM ATP, Morrison fit; read-out: CDK4D1 Ki
Procedure: (§2) The purpose CDK4/Cyclin D1 assay is to evaluate the inhibition (% inhibition, Kiapp and Ki values) in the presence of small molecule inhibitors by using a fluorescence based microfluidic mobility shift assay. […] The mobility shift assay electrophoretically separates the fluorescently labeled peptides (substrate and phosphorylated product) following the kinase reaction. Both substrate and product are measured and the ratio of these values is used to generate % Conversion of substrate to product by the LabChip EZ Reader.
The reaction was stopped after 195 minutes by the addition of 50 μL of 30 mM EDTA. Ki determinations were made from a plot of the fractional velocity as a function of inhibitor concentration fit to the Morrison equation with the enzyme concentration as a variable.
(§3) For CDK4 and CDK6 mobility shift assays, see also Morrison, J. F. (1969) Kinetics of the reversible inhibition of enzyme-catalysed reactions by tight-binding inhibitors, Biochimica et biophysica acta 185, 269-286; and Murphy, D. J. (2004) Determination of accurate KI values for tight-binding enzyme inhibitors: an in silico study of experimental error and assay design, Analytical biochemistry 327, 61-67.

CDK6/Cyclin D3 = CDK6/Cyclin D3 (Homo sapiens (Human), UniProt Q00534); assay: CDK6/Cyclin D3 mobility shift assay; format: biochemical; conditions: activated CDK6/Cyclin D3, 3.5 mM ATP, Morrison fit; read-out: CDK6_D3 Ki
Procedure: as §2, with “of the CDK6/Cyclin D3” for “CDK4/Cyclin D1”, “conversion” for “Conversion”
The reaction was stopped after 95 minutes by the addition of 50 μL of 30 mM EDTA. Ki determinations were made from a plot of the fractional velocity as a function of inhibitor concentration fit to the Morrison equation with the enzyme concentration as a variable.
as §3

Sequence of CDK4/Cyclin D1 (P11802 whole entry): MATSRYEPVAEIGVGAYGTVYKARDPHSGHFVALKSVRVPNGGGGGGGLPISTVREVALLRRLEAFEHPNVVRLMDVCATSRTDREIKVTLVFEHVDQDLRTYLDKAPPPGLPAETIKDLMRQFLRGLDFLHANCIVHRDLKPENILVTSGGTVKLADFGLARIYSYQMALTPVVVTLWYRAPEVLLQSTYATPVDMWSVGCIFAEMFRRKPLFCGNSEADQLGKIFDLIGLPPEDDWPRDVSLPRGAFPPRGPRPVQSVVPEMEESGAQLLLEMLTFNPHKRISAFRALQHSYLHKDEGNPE
Sequence of CDK4/Cyclin D1 (P24385 whole entry partner): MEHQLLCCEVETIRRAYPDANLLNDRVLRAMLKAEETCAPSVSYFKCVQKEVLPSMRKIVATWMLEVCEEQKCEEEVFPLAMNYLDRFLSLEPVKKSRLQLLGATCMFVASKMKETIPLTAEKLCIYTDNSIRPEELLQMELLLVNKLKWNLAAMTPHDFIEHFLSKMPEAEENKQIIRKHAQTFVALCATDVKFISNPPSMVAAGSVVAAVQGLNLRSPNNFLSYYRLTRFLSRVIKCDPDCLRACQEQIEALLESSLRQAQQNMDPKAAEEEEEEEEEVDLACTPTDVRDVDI
Sequence of CDK6/Cyclin D3 (Q00534 whole entry): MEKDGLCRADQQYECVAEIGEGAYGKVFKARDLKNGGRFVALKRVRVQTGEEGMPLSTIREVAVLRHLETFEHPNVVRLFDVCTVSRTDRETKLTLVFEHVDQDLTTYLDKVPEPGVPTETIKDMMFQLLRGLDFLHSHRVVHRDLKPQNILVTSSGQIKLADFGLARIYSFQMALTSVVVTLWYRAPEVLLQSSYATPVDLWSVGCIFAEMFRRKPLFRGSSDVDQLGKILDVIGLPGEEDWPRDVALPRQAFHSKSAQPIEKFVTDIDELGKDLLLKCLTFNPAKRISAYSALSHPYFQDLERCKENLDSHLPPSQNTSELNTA
Sequence of CDK6/Cyclin D3 (P30281 whole entry partner): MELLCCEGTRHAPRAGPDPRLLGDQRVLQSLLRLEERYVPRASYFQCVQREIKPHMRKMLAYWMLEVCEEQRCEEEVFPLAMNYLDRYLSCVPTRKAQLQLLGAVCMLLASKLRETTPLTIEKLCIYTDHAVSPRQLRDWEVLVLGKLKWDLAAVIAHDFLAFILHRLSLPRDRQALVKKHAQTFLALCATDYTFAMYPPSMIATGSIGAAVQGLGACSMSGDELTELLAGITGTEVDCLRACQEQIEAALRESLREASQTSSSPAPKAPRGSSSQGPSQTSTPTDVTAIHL
Sequence of CDK6 (Q00534 whole entry): as the sequence (Q00534 whole entry) above
Sequence of CDK6 (P30281 whole entry partner): as the sequence (P30281 whole entry partner) above
Sequence of CDK4 (P11802 2-303): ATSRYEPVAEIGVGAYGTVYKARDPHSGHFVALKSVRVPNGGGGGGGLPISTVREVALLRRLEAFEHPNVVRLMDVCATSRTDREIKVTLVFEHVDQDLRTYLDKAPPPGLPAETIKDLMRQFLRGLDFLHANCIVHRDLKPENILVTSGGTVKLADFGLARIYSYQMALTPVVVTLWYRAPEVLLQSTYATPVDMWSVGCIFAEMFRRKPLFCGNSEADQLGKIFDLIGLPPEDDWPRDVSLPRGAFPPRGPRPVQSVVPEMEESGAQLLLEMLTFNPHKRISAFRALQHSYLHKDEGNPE
Sequence of CDK4 (P24385 whole entry partner): as the sequence (P24385 whole entry partner) above

Structure (SMILES)	IC50 (CDK4) [nM]	IC50 (CDK6) [nM]	Ki (CDK4/Cyclin D1) [nM]	Ki (CDK6/Cyclin D3) [nM]
CC(C)n1c(CC(N)C(F)F)nc2c(F)cc(-c3nc(N[C@@H]4CCOC[C@H]4O)ncc3Cl)cc21 (single isomer, unassigned) [Example A58, 3-({4-[2-(2-amino-3,3-difluoropropyl)-4-fluoro-1-(propan-2-yl)-1H-benzimidazol-6-yl]-5-chloropyrimidin-2-yl}amino)-1,5-anhydro-2,3-dideoxy-D-threo-pentitol]	33.1	203	0.6	17.6
CNCC(=O)N1CC[C@@H](Nc2ncc(Cl)c(-c3cc(F)c4ncn(C(C)(C)C)c4c3)n2)[C@H](O)C1 [Example F25, 1-[(3R,4R)-4-{[4-(1-tert-butyl-4-fluoro-1H-benzimidazol-6-yl)-5-chloropyrimidin-2-yl]amino}-3-hydroxypiperidin-1-yl]-2-(methylamino)ethan-1-one]	455	455	1.2	19.3
CC(C)n1c(CC(C)(C)N)nc2c(F)cc(-c3nc(N[C@@H]4CCOC[C@H]4O)ncc3Cl)cc21 [Example A45, 3-({4-[2-(2-amino-2-methylpropyl)-4-fluoro-1-(propan-2-yl)-1H-benzimidazol-6-yl]-5-chloropyrimidin-2-yl}amino)-1,5-anhydro-2,3-dideoxy-D-threo-pentitol]	65.8	468	1	52
CC(C)c1c2cc(-c3nc(N[C@@H]4CCN(S(C)(=O)=O)C[C@H]4O)ncc3Cl)ccc2nn1C [Example A28]	99.2	131	0.5	6.2
CC(C)n1c([C@@H](C)O)nc2c(F)cc(-c3nc(N[C@@H]4CCN(S(C)(=O)=O)C[C@H]4O)ncc3Cl)cc21 [Example A93, (3R,4R)-4-[(5-chloro-4-{4-fluoro-2-[(1R)-1-hydroxyethyl]-1-(propan-2-yl)-1H-benzimidazol-6-yl}pyrimidin-2-yl)amino]-1-(methanesulfonyl)piperidin-3-ol]	34.7		0.2	
CC(C)(C)n1cnc2ccc(-c3cc(N[C@@H]4CCN(C(=O)CO)C[C@H]4O)ncc3Cl)nc21 [Example F22, 1-[(3R,4R)-4-{[4-(3-tert-butyl-3H-imidazo[4,5-b]pyridin-5-yl)-5-chloropyridin-2-yl]amino}-3-hydroxypiperidin-1-yl]-2-hydroxyethan-1-one]	61.3	171	0.5	9.1
CC(C)n1c(C(C)(O)C2CC2)nc2c(F)cc(-c3nc(N[C@@H]4CCOC[C@H]4O)ncc3Cl)cc21 (single isomer, unassigned) [Example A24]	40.1	167	1.3	16.4
CC(N)c1nc2c(F)cc(-c3nc(N[C@@H]4CCN(S(C)(=O)=O)C[C@H]4O)ncc3Cl)cc2n1C(C)C (single isomer, unassigned) [Example A48]	36.5	58.9	0.1	2.3
CC1(C)OCCn2nc3c(F)cc(-c4nc(N[C@@H]5CCOC[C@H]5O)ncc4Cl)cc3c21 [Example A27]	75.6	269	1	15.7
CC(C)n1c(CN)nc2c(F)cc(-c3nc(N[C@@H]4CCOC[C@H]4O)ncc3Cl)cc21 [Example A54, 3-({4-[2-(aminomethyl)-4-fluoro-1-(propan-2-yl)-1H-benzimidazol-6-yl]-5-chloropyrimidin-2-yl}amino)-1,5-anhydro-2,3-dideoxy-D-threo-pentitol]	173	605	2.3	37.5
C[C@H](O)C(=O)N1CC[C@@H](Nc2ncc(Cl)c(-c3cc(F)c4ncn(C(C)(C)C)c4c3)n2)[C@H](O)C1 [Example F21, (2S)-1-[(3R,4R)-4-{[4-(1-tert-butyl-4-fluoro-1H-benzimidazol-6-yl)-5-chloropyrimidin-2-yl]amino}-3-hydroxypiperidin-1-yl]-2-hydroxypropan-1-one]	59.5	246	0.4	7.7
CC(C)(C)n1cnc2c(F)cc(-c3nc(N[C@@H]4CCN(S(C)(=O)=O)C[C@H]4O)ncc3F)cc21 [Example F15, (3R,4R)-4-{[4-(1-tert-butyl-4-fluoro-1H-benzimidazol-6-yl)-5-fluoropyrimidin-2-yl]amino}-1-(methanesulfonyl)piperidin-3-ol]	34.4	39.8		1
CC(O)c1nc2c(F)cc(-c3nc(N[C@@H]4CCN(S(=O)(=O)C(F)F)C[C@H]4O)ncc3Cl)cc2n1C(C)C (stereo partly drawn) [Example F10, (3R,4R)-4-({5-chloro-4-[4-flluoro-2-(1-hydroxyethyl)-1-(propan-2-yl)-1H-benzimidazol-6-yl]pyrimidin-2-yl}amino)-1-(difluoromethanesulfonyl)piperidin-3-ol]	41.3		0.5	
CC(C)n1c([C@@H](C)O)nc2c(F)cc(-c3nc(N[C@@H]4CCN(S(C)(=O)=O)C[C@@H]4O)ncc3Cl)cc21 (single isomer, unassigned) [Example F11]	821		5.4	
Cc1nc2ccc(-c3nc(N[C@@H]4CCN(S(C)(=O)=O)C[C@H]4O)ncc3F)cc2n1C(C)C [Example A76, (3R,4R)-4-({5-fluoro-4-[2-methyl-1-(propan-2-yl)-1H-benzimidazol-6-yl]pyrimidin-2-yl}amino)-1-(methanesulfonyl)piperidin-3-ol]		242		6.3
CC(C)n1cnc2c(F)cc(-c3nc(N[C@@H]4CCN(C(=O)C5COC5)C[C@H]4O)ncc3Cl)cc21 [Example F18, [(3R,4R)-4-({5-chloro-4-[4-fluoro-1-(propan-2-yl)-1H-benzimidazol-6-yl]pyrimidin-2-yl}amino)-3-hydroxypiperidin-1-yl](oxetan-3-yl)methanone]	31.7		0.9	10.1
CCc1cnc(N[C@@H]2CCN(S(C)(=O)=O)C[C@H]2O)nc1-c1cc(F)c2nc(C)n(C(C)C)c2c1 [Example A70, (3R,4R)-4-({5-ethyl-4-[4-fluoro-2-methyl-1-(propan-2-yl)-1H-benzimidazol-6-yl]pyrimidin-2-yl}amino)-1-(methanesulfonyl)piperidin-3-ol]			26.2	124
CN1CCC(Nc2ncc(F)c(-c3cc(F)c4ncn(C(C)(C)C)c4c3)n2)CC1 [Example A03]			4	17.3
OCc1nc2c(F)cc(-c3nc(N[C@@H]4CCOC[C@H]4O)ncc3Cl)cc2n1C1CC(F)(F)C1 [Example A66, 1,5-anhydro-3-({5-chloro-4-[1-(3,3-difluorocyclobutyl)-4-fluoro-2-(hydroxymethyl)-1H-benzimidazol-6-yl]pyrimidin-2-yl}amino)-2,3-dideoxy-D-threo-pentitol]			12.1	54.7
Cc1nc2c(F)cc(-c3nc(N[C@@H]4CCN(S(C)(=O)=O)C[C@H]4O)ncc3Cl)cc2n1C1CC1 [Example A72, (3R,4R)-4-{[5-chloro-4-(1-cyclopropyl-4-fluoro-2-methyl-1H-benzimidazol-6-yl)pyrimidin-2-yl]amino}-1-(methanesulfonyl)piperidin-3-ol]			0.3	2.1
CC(C)n1c(C2CCO2)nc2c(F)cc(-c3nc(N[C@@H]4CCN(S(C)(=O)=O)C[C@H]4O)ncc3Cl)cc21 (single isomer, unassigned) [Example A32]			0.9	7.1
